{"source": "patent US6538032B1", "about": "“Phytosphingosine derivatives with antitumor activity” (Charmzone Co., Ltd., priority 2001, dated 2003)", "tested_on": "Lewis lung carcinoma (LLC) cells", "experiment": "inhibition of in vivo growth of Lewis lung carcinoma", "parameters": "species or system BDF1 mice", "settings": "2000 μg, intraperitoneal, 20 doses; day 21", "procedure": "The inhibition of cancer cell growth in vivo system was examined in BDF1 mice using Lewis lung carcinoma (LLC) cells. The concentration of LLC cells used was such that each mouse was injected with one million carcinoma cells via subcutaneous injection to induce a cancer. One hundred microliter of TMP liposome (TMP 100 μg) was injected intraperitoneally and intravenously, respectively, 1 day, 3 days, 6 days and 9 days after the injection of the above LLC cells. As a positive control, AG3340 (Agouron Pharmaceuticals Co., Ltd., USA), known as an MMP-2 (matrix metaloproteinasse-2) inhibitor, was suspended in 0.2% tween/0.5% carboxymethyl cellulose and 2 mg of the resulting suspension was intraperitoneally injected daily. […]\nTMP.I liposomes (DPPC/Chol/TMP.I=5:5:1 mole ratio) having an anti-metastatic activity, was administered to BDF1 inoculated with Lewis Lung Carcinoma (LLC) cells and their inhibitory effect on the tumor growth was observed. […] The same administration was repeated after 3 days, 6 days and 9 days of the subcutaneous injection of the LLC cancer cells and 21 days after the injection each mouse was killed by dislocation of the cervical vertebra, and the volume of cancer was measured by the following equation and the results are shown in the following table 5. […]", "data": [{"smiles": "CC1(C)SCCN(S(=O)(=O)c2ccc(Oc3ccncc3)cc2)[C@H]1C(=O)NO", "note": "[AG3340]", "values": [{"measurement": "Volume of Cancer", "value": "1100 ± 250", "unit": "mm^3"}]}]}
